Data reported in PMC3488320, “Indirubin derivative E804 inhibits angiogenesis” (BMC Cancer, 2012).
pIC50: −log10 of the molar value.

Target: T1, VEGFR-2 (Homo sapiens, UniProt P35968)
T1 construct: gene KDR
Experiment: HTScan VEGFR-2 kinase assay kit (purified kinase, peptide substrate, pTyr-100 ELISA)
Format: biochemical

T1 sequence (P35968 20-1356): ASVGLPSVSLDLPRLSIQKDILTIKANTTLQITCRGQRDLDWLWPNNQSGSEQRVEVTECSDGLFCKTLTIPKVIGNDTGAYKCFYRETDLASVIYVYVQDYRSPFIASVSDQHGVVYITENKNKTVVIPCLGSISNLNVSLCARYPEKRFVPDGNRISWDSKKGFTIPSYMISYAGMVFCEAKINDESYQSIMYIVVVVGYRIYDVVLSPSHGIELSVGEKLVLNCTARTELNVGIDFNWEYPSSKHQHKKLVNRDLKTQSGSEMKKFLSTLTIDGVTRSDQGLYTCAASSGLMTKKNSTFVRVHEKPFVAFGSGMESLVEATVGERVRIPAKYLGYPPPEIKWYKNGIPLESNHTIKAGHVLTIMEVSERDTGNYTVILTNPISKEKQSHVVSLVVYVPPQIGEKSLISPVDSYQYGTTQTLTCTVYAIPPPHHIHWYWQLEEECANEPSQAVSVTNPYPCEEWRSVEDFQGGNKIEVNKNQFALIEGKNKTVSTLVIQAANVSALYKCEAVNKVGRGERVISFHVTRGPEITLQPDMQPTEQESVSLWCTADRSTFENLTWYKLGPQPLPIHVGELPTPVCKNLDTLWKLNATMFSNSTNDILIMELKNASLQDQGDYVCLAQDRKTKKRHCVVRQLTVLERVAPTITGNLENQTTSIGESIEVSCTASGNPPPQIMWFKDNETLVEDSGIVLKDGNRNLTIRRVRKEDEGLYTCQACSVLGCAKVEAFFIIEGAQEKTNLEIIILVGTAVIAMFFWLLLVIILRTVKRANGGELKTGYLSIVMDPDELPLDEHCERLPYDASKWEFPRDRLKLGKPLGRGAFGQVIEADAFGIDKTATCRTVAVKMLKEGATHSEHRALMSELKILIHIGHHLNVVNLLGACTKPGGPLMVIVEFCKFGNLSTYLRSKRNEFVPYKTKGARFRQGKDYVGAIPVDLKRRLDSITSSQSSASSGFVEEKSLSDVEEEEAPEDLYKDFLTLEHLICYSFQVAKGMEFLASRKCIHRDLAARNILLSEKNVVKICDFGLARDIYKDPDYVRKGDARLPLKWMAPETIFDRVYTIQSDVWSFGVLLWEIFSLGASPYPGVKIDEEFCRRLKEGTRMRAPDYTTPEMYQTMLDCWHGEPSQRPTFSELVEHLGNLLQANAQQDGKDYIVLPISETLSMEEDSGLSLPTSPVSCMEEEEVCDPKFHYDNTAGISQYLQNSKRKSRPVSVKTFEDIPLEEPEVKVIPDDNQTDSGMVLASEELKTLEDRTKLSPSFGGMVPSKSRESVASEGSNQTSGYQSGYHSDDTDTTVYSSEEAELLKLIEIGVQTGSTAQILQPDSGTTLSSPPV

O=C1Nc2ccccc2C1=C1Nc2ccccc2C1=NOCC(O)CO (stereo not shown) [IDR-E804]
pIC50: 6.02
